Measured values taken from ChEMBL document CHEMBL5335811, “2-Phenylcyclopropylmethylamine (PCPMA) as a privileged scaffold for central nervous system drug design” (Bioorg Med Chem Lett, 2024).

Experiments:
[1] = biological target: T1, 5-hydroxytryptamine receptor 2A (Homo sapiens, UniProt P28223); assay: Agonist activity at human 5HT2A receptor; format: functional
Homo sapiens = organism: Homo sapiens; assay: Selectivity ratio of Ki for sigma 2 receptor (unknown origin) to Ki for sigma 1 receptor assessed as inhibition of constant
[2] = biological target: Sigma non-opioid intracellular receptor 1 (Homo sapiens, UniProt Q99720); assay: Binding affinity to sigma1 receptor (unknown origin) assessed as inhibition constant
Sequence of Sigma non-opioid intracellular receptor 1 (Q99720 whole entry): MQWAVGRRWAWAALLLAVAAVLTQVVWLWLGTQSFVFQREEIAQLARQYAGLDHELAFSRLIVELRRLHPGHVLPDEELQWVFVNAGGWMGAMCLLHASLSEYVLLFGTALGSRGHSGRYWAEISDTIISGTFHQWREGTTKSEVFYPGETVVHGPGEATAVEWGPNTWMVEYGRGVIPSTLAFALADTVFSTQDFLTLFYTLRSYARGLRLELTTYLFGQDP

[3] = biological target: Sigma intracellular receptor 2 (Homo sapiens, UniProt Q5BJF2); assay: Binding affinity to sigma 2 receptor (unknown origin) assessed as inhibition constant
Sequence of Sigma intracellular receptor 2 (Q5BJF2 whole entry): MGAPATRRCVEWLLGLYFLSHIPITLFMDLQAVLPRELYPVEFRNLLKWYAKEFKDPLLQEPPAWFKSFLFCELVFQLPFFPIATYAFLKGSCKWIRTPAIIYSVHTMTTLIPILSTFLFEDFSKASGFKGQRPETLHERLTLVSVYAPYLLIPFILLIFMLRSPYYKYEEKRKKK

[4] = biological target: T2, 5-hydroxytryptamine receptor 2C (Homo sapiens, UniProt P28335); assay: Agonist activity at 5HT2C receptor (unknown origin); format: functional
T2 sequence (P28335 whole entry): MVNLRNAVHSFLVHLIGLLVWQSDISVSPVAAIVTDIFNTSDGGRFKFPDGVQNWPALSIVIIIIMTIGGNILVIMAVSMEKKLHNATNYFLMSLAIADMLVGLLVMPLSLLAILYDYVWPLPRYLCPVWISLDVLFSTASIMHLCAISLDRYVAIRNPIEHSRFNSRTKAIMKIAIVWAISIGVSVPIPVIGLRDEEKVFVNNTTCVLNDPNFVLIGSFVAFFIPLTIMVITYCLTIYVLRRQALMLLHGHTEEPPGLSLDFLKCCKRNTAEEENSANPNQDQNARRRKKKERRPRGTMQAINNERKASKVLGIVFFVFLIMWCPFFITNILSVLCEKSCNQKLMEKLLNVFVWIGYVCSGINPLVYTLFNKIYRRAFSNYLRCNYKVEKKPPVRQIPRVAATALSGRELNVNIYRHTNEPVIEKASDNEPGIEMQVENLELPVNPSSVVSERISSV

[5] = biological target: T1, 5-hydroxytryptamine receptor 2A; assay: Agonist activity at N-terminal HA-tagged human 5HT2A receptor; format: functional
[6] = biological target: T1, 5-hydroxytryptamine receptor 2A; assay: Agonist activity at 5HT2A receptor (unknown origin) at 10 uM relative to control; format: functional
[7] = biological target: T3, 5-hydroxytryptamine receptor 2C (Homo sapiens) (UniProt P28335); assay: Agonist activity at 5HT2C receptor (unknown origin) at 10 uM relative to control; format: functional; conditions: filed as agonist
T3 sequence (whole entry): T2 sequence (P28335 whole entry)

[8] = Terminal elimination half life in Sprague-Dawley rat at 12 mg/kg, po; format: ADME, organism-based; conditions: in vivo, read-out: beta t1/2 (converted)
Mus musculus [9] = organism: Mus musculus; assay: Antidepressant activity in Swiss albino mouse assessed as minimum effective dose by tail suspension test; format: functional; conditions: read-out: MED
Mus musculus [10] = organism: Mus musculus; assay: Antidepressant activity in USV-induced Swiss albino mouse model of depression assessed as minimum effective dose; format: functional; conditions: read-out: MED
[11] = Effect on emotional-affective response in USV-induced Sprague-Dawley rat assessed as reduction in ultrasonic vocalization; format: functional; conditions: read-out: MED
[12] = biological target: T4, 5-hydroxytryptamine receptor 2B (Homo sapiens, UniProt P41595); assay: Agonist activity at 5HT2B (unknown origin) at 1 uM relative to control; format: functional
T4 sequence (P41595 whole entry): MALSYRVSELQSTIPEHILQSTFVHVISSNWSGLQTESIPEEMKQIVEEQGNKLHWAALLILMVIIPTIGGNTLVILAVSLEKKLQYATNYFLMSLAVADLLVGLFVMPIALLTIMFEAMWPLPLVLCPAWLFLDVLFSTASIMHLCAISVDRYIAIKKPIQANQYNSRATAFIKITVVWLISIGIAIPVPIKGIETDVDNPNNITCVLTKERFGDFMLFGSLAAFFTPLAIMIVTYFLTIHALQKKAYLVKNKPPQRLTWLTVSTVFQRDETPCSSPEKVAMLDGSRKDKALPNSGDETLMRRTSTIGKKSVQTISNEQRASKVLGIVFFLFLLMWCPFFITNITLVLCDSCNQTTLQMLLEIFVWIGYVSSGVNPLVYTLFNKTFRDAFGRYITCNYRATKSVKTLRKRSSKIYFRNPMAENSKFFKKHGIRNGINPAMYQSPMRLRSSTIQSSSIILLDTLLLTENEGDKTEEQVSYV

[13] = biological target: T3, 5-hydroxytryptamine receptor 2C (Homo sapiens); assay: Agonist activity at 5HT2C receptor (unknown origin) at 1 uM relative to control; format: functional; conditions: filed as agonist
[14] = biological target: T4, 5-hydroxytryptamine receptor 2B; assay: Agonist activity at 5HT2B (unknown origin); format: functional
[15] = biological target: T1, 5-hydroxytryptamine receptor 2A; assay: Agonist activity at N-terminal HA-tagged human 5HT2A receptor at 1 uM relative to control; format: functional
[16] = biological target: T5, Melatonin receptor type 1B (Homo sapiens, UniProt P49286); assay: Binding affinity to MT2 receptor (unknown origin) assessed as inhibition constant
T5 sequence (P49286 whole entry): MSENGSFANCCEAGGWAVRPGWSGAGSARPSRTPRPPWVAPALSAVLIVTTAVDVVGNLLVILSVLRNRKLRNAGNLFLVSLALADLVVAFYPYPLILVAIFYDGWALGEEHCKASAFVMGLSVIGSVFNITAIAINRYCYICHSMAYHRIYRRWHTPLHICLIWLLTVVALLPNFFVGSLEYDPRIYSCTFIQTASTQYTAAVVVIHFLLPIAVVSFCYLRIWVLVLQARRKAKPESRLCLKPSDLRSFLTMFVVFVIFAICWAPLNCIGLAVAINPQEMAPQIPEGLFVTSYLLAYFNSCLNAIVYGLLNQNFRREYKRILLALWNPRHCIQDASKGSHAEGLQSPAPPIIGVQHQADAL

[17] = Binding affinity to MT1 receptor (unknown origin) assessed as inhibition constant; parameters: species or system Homo sapiens

T1 sequence (P28223 whole entry): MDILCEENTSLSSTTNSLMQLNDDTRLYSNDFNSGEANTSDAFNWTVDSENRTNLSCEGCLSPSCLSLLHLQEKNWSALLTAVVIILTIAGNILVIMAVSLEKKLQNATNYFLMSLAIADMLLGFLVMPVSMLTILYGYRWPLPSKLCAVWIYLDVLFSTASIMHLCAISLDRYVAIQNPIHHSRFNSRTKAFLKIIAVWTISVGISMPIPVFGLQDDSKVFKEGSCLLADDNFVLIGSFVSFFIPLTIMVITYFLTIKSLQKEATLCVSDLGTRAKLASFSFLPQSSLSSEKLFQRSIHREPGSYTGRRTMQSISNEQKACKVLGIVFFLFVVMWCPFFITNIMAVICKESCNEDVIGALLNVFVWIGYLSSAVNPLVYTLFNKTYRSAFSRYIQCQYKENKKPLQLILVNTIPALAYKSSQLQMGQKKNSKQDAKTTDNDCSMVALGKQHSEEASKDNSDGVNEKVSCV

SMILES: CC1(C)Cc2cc(Cl)cc([C@H]3C[C@H]3CN)c2O1
- EC50 [1]: 600 nM

SMILES: COC(=O)[C@]1(c2ccccc2)C[C@@H]1CN1CCC(O)(c2ccc(Cl)cc2)CC1
- Selectivity ratio (Homo sapiens): 5.5
- Ki [2]: 1.51 nM
- Ki [3]: 21.9 nM

SMILES: NC[C@@H]1C[C@@H]1c1cc(O)ccc1OCC1CC1
- EC50 [4]: 9.3 nM
- EC50 [5]: 372 nM
- Emax [6]: 18%
- Emax [7]: 70%

SMILES: CCN(CC)C(=O)[C@@]1(c2ccccc2)C[C@H]1CN [LEVOMILNACIPRAN]
- half-life [8]: 12 h
- minimal effective dose (Mus musculus [9]): 2.5 mg/kg
- minimal effective dose (Mus musculus [10]): 20 mg/kg
- minimal effective dose [11]: 5 mg/kg

SMILES: NC[C@@H]1C[C@@H]1c1cc(F)ccc1OCC1CC1
- EC50 [4]: 21 nM
- Emax [12]: 21%
- EC50 [5]: 894 nM
- Emax [13]: 71%
- EC50 [14]: 289 nM
- Emax [15]: 29%

SMILES: CCC(=O)NC[C@@H]1C[C@H]1c1cccc2c1CCO2 [TASIMELTEON]
- Ki [16]: 0.07 nM
- Ki [17]: 0.3 nM
